We go through 27 molecules from paper PMC12472302, “Discovery of a Promising Hydroxyamino-Piperidine HDAC6 Inhibitor via Integrated Virtual Screening and Experimental Validation in Multiple Myeloma” (Pharmaceuticals, 2025).

Where two headings read alike, the source gives them in different places.

For data set [1], the system named is HDAC6. The conditions noted are these: cited from earlier work.
In data set [2] the test system is HDAC6. The conditions noted are these: cited from earlier work. The source holds these as a separate data set.
The target in data set [3] is T1, HDAC6 human recombinant enzyme (Homo sapiens, UniProt Q9UBN7).
T1 sequence (Q9UBN7 1-1215): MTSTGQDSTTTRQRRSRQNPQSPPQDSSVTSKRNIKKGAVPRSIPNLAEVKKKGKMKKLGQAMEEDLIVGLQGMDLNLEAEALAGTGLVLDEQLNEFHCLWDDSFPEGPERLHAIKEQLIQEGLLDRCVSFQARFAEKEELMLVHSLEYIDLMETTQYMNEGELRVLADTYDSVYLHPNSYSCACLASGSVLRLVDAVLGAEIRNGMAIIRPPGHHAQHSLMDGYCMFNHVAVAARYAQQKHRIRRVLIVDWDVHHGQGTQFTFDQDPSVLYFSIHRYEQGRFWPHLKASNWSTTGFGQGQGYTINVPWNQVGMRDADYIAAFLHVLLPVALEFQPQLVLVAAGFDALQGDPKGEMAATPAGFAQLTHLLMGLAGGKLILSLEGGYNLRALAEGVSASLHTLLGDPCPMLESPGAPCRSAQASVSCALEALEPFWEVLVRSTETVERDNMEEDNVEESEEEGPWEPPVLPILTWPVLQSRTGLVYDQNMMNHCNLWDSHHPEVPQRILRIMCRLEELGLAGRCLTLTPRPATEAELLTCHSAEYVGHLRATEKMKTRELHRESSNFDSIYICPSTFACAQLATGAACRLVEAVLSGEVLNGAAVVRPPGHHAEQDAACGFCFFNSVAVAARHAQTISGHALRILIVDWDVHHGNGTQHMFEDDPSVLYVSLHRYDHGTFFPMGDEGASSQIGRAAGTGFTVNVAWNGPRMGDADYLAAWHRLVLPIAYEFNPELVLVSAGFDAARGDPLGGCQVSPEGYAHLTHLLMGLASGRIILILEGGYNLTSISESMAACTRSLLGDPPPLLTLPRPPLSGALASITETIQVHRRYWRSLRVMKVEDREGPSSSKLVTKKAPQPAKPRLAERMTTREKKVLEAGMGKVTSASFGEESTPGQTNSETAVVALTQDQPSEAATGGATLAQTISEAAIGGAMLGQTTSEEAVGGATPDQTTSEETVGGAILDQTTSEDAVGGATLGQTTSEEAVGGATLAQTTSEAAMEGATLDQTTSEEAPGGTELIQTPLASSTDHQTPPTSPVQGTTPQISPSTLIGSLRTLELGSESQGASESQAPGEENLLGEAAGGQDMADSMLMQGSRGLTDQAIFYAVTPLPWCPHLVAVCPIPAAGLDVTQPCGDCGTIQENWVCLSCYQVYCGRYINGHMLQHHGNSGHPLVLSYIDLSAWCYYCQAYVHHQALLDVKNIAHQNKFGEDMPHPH
Description: Fluorogenic HDAC6 inhibition assay (BPS Bioscience kit). It counts as biochemical. Conditions: mean ± SD, three independent experiments.

In another data set the test system is AMO cells. The data set can be described thus: CellTiter-Glo cell viability, AMO. The format is cell-based. Conditions: Homo sapiens, 72 h, mean ± SD. The method, then: (§1) The MM cell lines used in this study were: AMO, AMO-BZB, NCI-H929 and NCI-H929-BZB. AMO and AMO-BZB cells were provided by Dr. C. Driessen (University of Tubingen, Tübingen, Germany). The NCI-H929 cell line was purchased from DSMZ (Braunschweig, Germany). Bortezomib (BZB)-resistant NCI-H929 cells were selected by incubation with increasing concentrations of the drug. Human MM cell lines were cultured in RPMI-1640 medium (Corning, Turin, Italy) supplemented with 10% of heat-inactivated fetal bovine serum (FBS) (Gibco®, Life Technologies, Carlsbad, CA, USA), 100 U/mL of Penicillin and 100 µg/mL of Streptomycin (P/S) (Gibco®, Life Technologies, Carlsbad, CA, USA) and incubated at 37 °C in a 5% CO2 atmosphere. Peripheral blood mononuclear cells (PBMCs) were isolated by Ficoll-hypaque (Lonza Group, Basel, Switzerland) from healthy donors, following informed consent and Institutional Review Board (University of Catanzaro, Catanzaro, Italy) approval (institutional approval: n.266/2021). […]
(§2) Cell viability was assessed using the CellTiter-Glo (CTG) assay kit (Promega, Madison, WI, USA), as reported. […] Luminescence was measured using the GloMax-Multi Detection System (Promega, Madison, WI, USA).
On the technique in general: Cellular ATP, detected with luciferase, serves as a proxy for viable cell number.

In a further data set the test system is AMO-BZB cells. The data set can be described thus: CellTiter-Glo cell viability, AMO-BZB. The format is cell-based. The conditions noted are these: Homo sapiens; AMO-BZB (bortezomib-resistant), 72 h, mean ± SD. The method, then: as §1, §2
The test system of another data set is H929 cells. Description: CellTiter-Glo cell viability, H929. The format is cell-based. The conditions noted are these: Homo sapiens, NCI-H929; H929, 72 h, mean ± SD. How it is done: as §1, §2
A further data set deals with H929-BZB cells. Description: CellTiter-Glo cell viability, H929-BZB. It counts as cell-based. Conditions: Homo sapiens; H929-BZB (bortezomib-resistant), 72 h, mean ± SD. The method, then:
as §1, §2

The next data set relates to 293T cells. The data set can be described thus: CellTiter-Glo cell viability, 293T. It counts as cell-based. Conditions: 72 h.
Data set [4] concerns healthy peripheral blood mononuclear cells (PBMCs). The data set can be described thus: CellTiter-Glo cell viability, healthy PBMCs. The format is cell-based. The conditions noted are these: 72 h. How it is done: as §1, §2
The test system of a further data set is acetylated α-tubulin. Description: Western blot of acetylated α-tubulin in MM cell lines. The conditions noted are these: AMO and AMO-BZB. It counts as cell-based, human. How it is done:
(§3) Total protein extracts were prepared using NP-40 Cell Lysis Buffer supplemented with Halt™ Protease Inhibitor Cocktail (Thermo Fisher Scientific, Waltham, MA, USA), as reported.
(§4) Protein samples (30 µg per lane) were resolved on 10% SDS-PAGE gels and subsequently transferred onto nitrocellulose membranes using the Trans-Blot Turbo Transfer System (Bio-Rad Laboratories, Hercules, CA, USA). Membranes were then blocked and incubated with the following primary antibodies: acetylated-α Tubulin (#sc-23950; Santa Cruz Biotechnology, Dallas, TX, USA), acetylated-histone H4 (#sc-34263; Santa Cruz Biotechnology) or histone H4 (#AB5823; abcam). GAPDH (MA5-15738; Thermo Fisher Scientific, Waltham, MA, USA) was used as loading control. Protein bands were visualized using the Clarity Western ECL Substrate (Bio-Rad Laboratories, Hercules, CA, USA), and chemiluminescence signals were quantified using the UVITEC Imaging System (Cleaver Scientific, Warwickshire, UK).
For orientation: A western blot detects proteins with antibodies after separation by electrophoresis.

The test system of a further data set is histone H4 acetylation. The data set can be described thus: Western blot of acetylated histone H4 in AMO cells. The format is cell-based, human. The conditions noted are these: 72 h. How it is done: as §3, §4
Setting [5] is: Table S1, ref DOI 10.1039/D2RA01753A.

Usually IC50 stands for the concentration at which inhibition is half-maximal. For `Nc1n[nH]c(-c2cc(Cc3ccc(C(=O)NO)cc3)ccc2NC(=O)Cc2ccc3c(c2)OCO3)n1`, the IC50 with HDAC6 [1] (setting [5]) was 0.1 nM.
On to `O=C(CCCCCCC[C@H]1C(=O)[C@H]2CCC(=O)N2Cc2ccccc21)NO`, for which, in the data set on HDAC6 [1], the IC50 was 21.4 nM.
As for `CN(C)c1ccc(C(=O)N2CCC(n3cc(C(=O)NCCCCCC(=O)NO)nn3)CC2)cc1`, the IC50 in the data set with HDAC6 [1] is 11.5 nM.
In the case of `O=C(CCCCCNC(=O)c1cn(C2CCN(S(=O)(=O)c3ccc4ccccc4c3)CC2)nn1)NO`, the IC50 in the data set on HDAC6 [1] is 8.6 nM.
As to `O=C(CCCCCNC(=O)c1cn(Cc2ccc(NS(=O)(=O)c3ccc(Br)cc3)cc2)nn1)NO`, the IC50 with HDAC6 [1] was 8.4 nM.
Consider `COc1ccc(-c2ncc(C(=O)NCCCCCC(=O)NO)s2)c(OC)c1`, for which the IC50 in the data set with HDAC6 [1] is 31 nM.
For the molecule `COc1ccc(C(=O)NC2CCN(C(=O)Nc3ccc(/C=C/C(=O)NO)cc3)CC2)cc1`, the IC50 in the data set on HDAC6 [1] was 12.3 nM.
For `C=CCC.CC[C@@H]1NC(=O)CN(Cc2ccc(C(=O)NO)cc2)C1=O`, the IC50 in the data set on HDAC6 [1] is 0.73 nM.
As to `O=C(NO)c1ccc(CN2CC(=O)N(Cc3ccccc3)[C@H](Cc3ccccc3)C2=O)cc1`, the IC50 in the data set on HDAC6 [1] was 9.83 nM.
Consider `O=C(NO)c1ccc(CN2C(=O)[C@@H](Cc3ccccc3)N(Cc3cccnc3)C2=O)cc1`, for which the IC50 in the data set on HDAC6 [1] is 2.1 nM.
For the molecule `O=C(NO)c1ccc(CN2c3ccccc3Sc3cccnc32)cc1`, in the data set with HDAC6 [1] (Table S1, ref PMID 30645113), the half-maximal inhibitory concentration (IC50) is 5 nM.
`NCc1ccc(NC(=O)N(CCCCO)Cc2ccc(C(=O)NO)cc2)cc1`: the 50% inhibitory concentration (IC50) in the data set with HDAC6 [1] (Table S1, ref PMID 32815366) is 0.4 nM.
For the molecule `O=C(NO)c1ccc(CN(Cc2nnnn2Cc2ccccc2)C(=O)c2ccccc2C(F)(F)F)cc1`, in the data set on HDAC6 [1] (Table S1, ref PMID 32803970), the IC50 is 30 nM.
As to `CCCON(Cc1ccc(C(=O)NO)cc1)C(=O)Nc1cc(C)cc(C)c1`, the IC50 in the data set on HDAC6 [1] was 14 nM.
As for `O=C(NO)c1ccc(CN(Cc2cccnc2)S(=O)(=O)c2cc(F)c(F)c(F)c2F)cc1`, in the data set with HDAC6 [1] (Table S1, ref PMID 33576627), the IC50 was 2.1 nM.
For the molecule `O=C(NO)c1ccc(COC(=O)N2CCC3(CC2)CN(Cc2ccccc2)c2ccccc23)cc1`, the IC50 in the data set with HDAC6 [1] is 48.5 nM.
In the case of `CCN(CC)Cc1ccc(Cn2c(=O)c(OCc3ccc(C(=O)NO)cc3)c(-c3ccccc3)c3ccccc32)cc1`, the concentration for half-maximal inhibition (IC50) with HDAC6 [1] (Table S1, ref PMID 33199154) is 6.9 nM.
Turning to `Nc1nc2c3ccc(Cc4ccc(C(=O)NO)cc4)cc3nc(Cc3ccc4c(c3)OCO4)n2n1`, the IC50 in the data set with HDAC6 [1] (setting [5]) was 0.5 nM.
For `O=C(NO)c1ccc(Cn2c(=O)n(CCc3ccccc3)c(=O)c3ccccc32)cc1`, the 50% inhibitory concentration (IC50) in the data set on HDAC6 [1] is 4 nM.
Turning to `O=C(NO)c1ccc(N2C(=O)/C(=C3\Nc4ccccc4\C3=N/O)c3ccccc32)cc1`, the IC50 with HDAC6 [1] (Table S1, ref PMID 32916298) is 7 nM.
For `O=C(Cc1cccc2ccccc12)C[C@@H](Cc1ccccc1)C(=O)NO`, in the data set with HDAC6 [1], the IC50 was 88 nM.
`O=C(CCCCCCNC(=O)c1cnc(N(c2ccccc2)c2ccccc2Cl)nc1)NO` [ACY-241]: the selectivity ratio with HDAC6 [2] was roughly 10.
Regarding `CC(C)Oc1ccc(-c2csc(NC(=O)c3ncn[nH]3)n2)cc1` [Compound 9], the IC50 in data set [3] was greater than 25000 nM.
As for `O=C(CCC=C1CCN(C(=O)OCc2ccccc2)CC1)NO` [Compound 10, benzyl 4-[4-(hydroxyamino)-4-oxobutylidene]piperidine-1-carboxylate], the half-inhibitory concentration (IC50) turned out to be 1690 ± 420 nM in [3]; 13200 nM with AMO cells; 48600 nM in the data set with AMO-BZB cells; 18000 nM with H929 cells; 30400 nM with H929-BZB cells. In addition, the “effect on viability of non-transformed cells” value in the data set on 293T cells was “negligible effects”. For the same molecule, in [4], the “effect on viability of healthy PBMCs” value was “negligible effects”. In addition, in the data set with acetylated α-tubulin (72 h after treatment), the “acetylated α-tubulin levels” value is “marked increase”. In addition, the “impact on histone H4 acetylation” value in the data set on histone H4 acetylation is on record as “moderate”.
On to `COC(=O)c1ccc2ccccc2c1OCCCCCCCC(=O)NO` [ONC(=O)CCCCCCCOc1c(C(=O)OC)ccc(c12)cccc2], for which the IC50 in the data set with HDAC6 [1] (Table S1, ref PMID 31223439) is 95 nM.
Regarding `O=C(NO)c1ccc(CNc2ncnc3[nH]ccc23)cc1` [ONC(=O)c1ccc(cc1)CNc2ncnc(c23)[nH]cc3], the IC50 in the data set on HDAC6 [1] is 10 nM.
For ACY-1215, the “acetylated α-tubulin levels” value in the data set with acetylated α-tubulin (48 h after treatment) is “marked increase”.
